According to patent US10662203B2, “Pyrido[2,3-b]indole compounds for the treatment and prophylaxis of bacterial infection” (Hoffmann-La Roche Inc., priority 2017, dated 2020):
≈ marks a conversion by molar mass, not a printed value.

Tests used:
[1] = test system: A. baumannii (ATCC17978); assay: 50% growth inhibitory concentration (IC50) determination assay; assay type: cell-based; conditions: Acinetobacter baumannii, ATCC17978, A. baumannii ATCC17978; Iso-Sensitest broth; 0.098 = detection limit
Procedure, shortened: (§1)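 Read-out is optical density at λ=600 nm, taken every 20 minutes across a 16 h time course. Bacteria at ~5×10^5 CFU/mL in Iso-Sensitest broth are exposed to two-fold dilutions of compound (50 to 0.097 μM final) at 35±2° C.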

[2] = test system: K. pneumoniae (ATCC10031); assay: as above; assay type: cell-based; conditions: Klebsiella pneumoniae, Iso-Sensitest broth, 0.098 = detection limit
Procedure, shortened: as §1

[3] = test system: S. aureus (ATCC29213); assay: as above; assay type: cell-based; conditions: Staphylococcus aureus, Iso-Sensitest broth, 0.098 = detection limit
Procedure, shortened: as §1

[4] = Lyophilisation solubility assay (LYSA); assay type: physicochemical; conditions: phosphate buffer, pH 6.5, aqueous buffer, thermodynamic from solid, 0.05 M phosphate buffer, HPLC-UV
Procedure, shortened: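 Read-out is HPLC-UV of the filtered solution and its 1/10 dilution. The dried residue of a 10 mM DMSO stock was redissolved in 0.05 M pH 6.5 phosphate buffer, then stirred 1 h, shaken 2 h and held overnight. Run in duplicate.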

[5] = Cytotoxicity assay (HepG2, CellTiter-Blue cell viability); assay type: cell-based; conditions: human; HepG2 cells, 3 days treatment; "*": the detection limit; read-out: CC50
Protocol: The cytotoxicity of compounds of present invention was assessed by HepG2 assay. HepG2 cells (ATCC HB-8065™) were seeded into 96-well plates (1.2×10^4 cells per well) and treated with compounds for 3 days, cell viability was measured at day 3 post compound treatment using the CellTiter-Blue® Cell Viability Assay (Promega, Cat. No. G8082). 20 μL of Cell titer blue buffer were added to each well of the cells, which were incubated for 3 hours at 37° C., and the fluorescence value was measured by a plate reader (Molecular Device SpectraMax M2). The CC50 value of each compound is plotted with GraphPad Prism using four parameter logistic equation.

SMILES	IC50 [1] [µM]	IC50 [2] [µM]	IC50 [3] [µM]	solubility thermodynamic [4] [µg/mL]	CC50 at 3 days [5] [nM]
CNc1cc(F)cc2c1[nH]c1ncc(-c3cnc4c(c3)c(=O)c(C(=O)O)cn4C)c(N3CCO[C@@H](CN(C)C)C3)c12 [Example 3.02A]	0.268	< 0.098	< 0.098	480 (≈ 858 µM)	> 100000
CNc1cc(F)cc2c1[nH]c1ncc(-c3cnc4c(c3)c(=O)c(C(=O)O)cn4C)c(N3CCO[C@H](CN(C)C)C3)c12 [Example 3.02B]	0.444	< 0.098	< 0.098	455 (≈ 813 µM)	> 100000
CNc1cc(F)c(F)c2c1[nH]c1ncc(-c3cnc4c(c3)c(=O)c(C(=O)O)cn4C)c(N3CCC[C@@H](N(C)C)C3)c12 [Example 3.06A]	0.102	< 0.098	< 0.098	66 (≈ 118 µM)	52500
CNc1cc(F)c(F)c2c1[nH]c1ncc(-c3cnc4c(c3)c(=O)c(C(=O)O)cn4C)c(N3CCC[C@H](N(C)C)C3)c12 [Example 3.06B]	0.176	< 0.098	< 0.098	85 (≈ 151 µM)	40200

Second part, led by results:

IC50 [1] [µM]	IC50 [2] [µM]	IC50 [3] [µM]	solubility thermodynamic [4] [µg/mL]	SMILES	CC50 at 3 days [5] [nM]
0.197	< 0.098	0.195	181 (≈ 314 µM)	CNc1cc(F)c(F)c2c1[nH]c1ncc(-c3cnc4c(c3)c(=O)c(C(=O)O)cn4NC)c(N3CCCC(N(C)C)C3)c12 (stereo not drawn) [Example 1.191]	29100
0.096	< 0.098	< 0.098	16 (≈ 27.8 µM)	CNc1cc(F)c(F)c2c1[nH]c1ncc(-c3cnc4c(c3)c(=O)c(C(=O)O)cn4NC)c(N3CC4[C@H](CCN4C)C3)c12 (stereo partly drawn) [Example 1.193]	> 100000
0.187	< 0.098	0.12	190 (≈ 330 µM)	CNc1cc(F)c(F)c2c1[nH]c1ncc(-c3cnc4c(c3)c(=O)c(C(=O)O)cn4NC)c(N3CCC[C@H]3CN(C)C)c12 [Example 1.217]	27800
0.294	< 0.098	0.132	12 (≈ 21.4 µM)	CNc1cc(F)c(F)c2c1[nH]c1ncc(-c3cnc4c(c3)c(=O)c(C(=O)O)cn4C)c(N3CC4CN(C)C[C@@H]4C3)c12 (stereo partly drawn) [Example 1.227]	28000
0.297	< 0.098	< 0.098	12 (≈ 20.9 µM)	CNc1cc(F)c(F)c2c1[nH]c1ncc(-c3cnc4c(c3)c(=O)c(C(=O)O)cn4C)c(N3CCC4(CCN(C)C4)C3)c12 (stereo not drawn) [Example 1.229]	53100
0.376	< 0.098	0.099	19 (≈ 32.3 µM)	CNc1cc(F)c(F)c2c1[nH]c1ncc(-c3cnc4c(c3)c(=O)c(C(=O)O)cn4C)c(N3CCC4(CCCN4C)CC3)c12 [Example 1.230]	> 100000
0.164	< 0.098	< 0.098	23 (≈ 42 µM)	CNc1cc(F)c(F)c2c1[nH]c1ncc(-c3cnc4c(c3)c(=O)c(C(=O)O)cn4C)c(N3CC[C@H](N(C)C)C3)c12 [Example 1.254]	36100
0.065	< 0.098	< 0.098	24 (≈ 40.6 µM)	CNc1cc(F)c(Cl)c2c1[nH]c1ncc(-c3cnc4c(c3)c(=O)c(C(=O)O)cn4NC)c(N3CC[C@H]4CN(C)CC43)c12 (stereo partly drawn) [Example 1.268]	33400
